Assay results reported in patent EP2787958B1, “CHELIDONIUM MAJUS EXTRACTS AND THEIR USE IN THE TREATMENT OF SKIN DISORDERS AND PROMOTION OF SKIN REGENERATION” (priority 2011, dated 2013).
Where two headings read alike, the source gives them in different places.

Tests used:
[1] = test system: collagen produced by HDF cells; assay: Quantity of collagen produced by the cells (elution of Sirius Red)
[2] = Anti-radical activity (decay of the DPPH radical); format: biochemical; conditions: for Anti-radical (skin protective): 24 hours
Procedure: With regard to assays aimed at evaluating anti-radical activity, a chemical test was used where the decay of the diphenylpicrylhydrazyl (DPPH) radical is assessed in the absence or in the presence of the test substances. Indeed, the DPPH radical is used to test the ability of substances to act as free radical scavengers. DPPH in solution has a purple colour with a maximum absorbance peak at 517 nm which changes to yellow-colourless when this radical extracts a hydrogen atom from a radical scavenger to give rise to the reduced form DPPH-H. The assay has been conducted in quadruplicate in 96 well microplates (SARSTEDT Tissue Culture Plate 96-well flat bottom cell+). 50 µl of an ethanol solution of the test substance at 2X concentration and then 50 µl of a 200 µM solution of DPPH (MW 168,18, Aldrich 2,2-di(4-tert-octylphenyl)-1-picrylhydrazyl, free radical Lot# MKBF7574V Cat N° 257621-100 mg) have been added to each well of the microplate. A positive control consisting of 0.1 mM vitamin C and a negative control consisting of ethanol alone were included in each microplate. After 30 minutes from the addition of DPPH, photographs of the plates were taken (Canon PowerShot A610 5.0 Mpixels) and read spectrophotometrically at 530 nm.
Based on the analysis of the results reported in Table 9, some substances were selected for further characterisation of their anti-radical activity. For the selected substances, dose-activity curves were obtained and the IC50 value were computed using a non-linear regression model with the Hill equation at variable slope. Such substances had been selected due to both their anti-radical potential and the easiness of their isolation/production. The selection of substances was made in view of cosmetics applications. Moreover their activity on human dermal fibroblasts (HDF) is expected to be useful also for the development of dermatological medications. The selected substances are discussed below.

[3] = test system: Human dermal fibroblasts (HDF); assay: Mitochondrial dehydrogenase activity (WST-1 formazan assay) in HDF cells; conditions: for Revitalizing agent: 24 hours; for activity at 1 µM / activity at 10 µM: Homo sapiens, Fibroblast, read-out: % mitochondrial dehydrogenase activity ± SD
Procedure: Human dermal fibroblasts were used for assay at the 3rd T75 passage.
Mitochondrial dehydrogenase activity was measured in HDF, HEK and HUVEC cells by means of the formazan assay, using the WST-1 kit from Roche Diagnostic in accordance with the supplier's instructions. Briefly: the reagent was added (10 µl per well), the incubation was carried out for a further 2 hours or 4 hours, and, at the end of this time, the absorbance was read for 1 s at a wavelength of 450 nm in a Perkin Elmer Victor 2 Wallac microplate reader.
The activity percentage (% mitochondrial dehydrogenase activity) is defined as: % mitochondrial dehydrogenase activity = ((absorbance of treated cells - absorbance of blank) / (absorbance of control - absorbance of blank)) x 100.
The tests were performed with observations after 18 hours, seeding 8,000 cells per well, and after 42 hours, seeding 2,000 cells per well. Furthermore, in order to better analyze the dose/response curves for dihydroberberine, canadine and stylopine, curves were collected at 11 concentrations by seeding 2,000 cells per well with 46 hours incubation.
Dose/response curves are plotted at 6 concentrations. The tests were performed with observations after 24 hours, seeding 8,000 cells per well.

HDF cells [4] = assay: Evaluation of cell proliferation (counting of Sirius Red stained cells in photographs); conditions: for No. of cells from photo ± SD: 24 hours
HDF cells [5] = assay: Summary of uses and toxic effects deduced from the cell assays (Table 1); format: cell-based, Human; conditions: for Anti-fibrotic (prevention of scar formation, also from acne) / Cytoprotective (antioxidant, anti-inflammatory and anti-ageing; useful also in the treatment of acne) / Cytotoxic / Irritant / Wound-healing: 24 hours
Procedure: Antiradical (skin protective): this is deduced from the free radical scavenger effects.
Revitalizing: this is deduced from the increased mitochondrial dehydrogenase effect.
Cytoprotective, with regard to oxidative damage (antioxidant, anti-inflammatory and anti-ageing): this is deduced from antagonising the stimulation of IL-1β and/or IL-6 induced by 100 µM H2O2 and from the absence of changes in cell morphology similar to the ones due to cell senescence.
Wound healing: this is deduced from the effect of inhibiting the production of IL-1β and by the effect of stimulating cell proliferation under standard growth conditions.
Cytotoxicity: this is deduced from the effect of reducing mitochondrial dehydrogenase activity or from the presence of morphologies characteristic of cell senescence.
Irritation: this is deduced from the effect of increased production of IL-6 and/or IL-1β under standard growth conditions.
Said uses in the fields of medicine and cosmetics or the toxic effects of the substances of the invention at a given dosage, for 24 hours, are summarized in Table 1 below.

interleukin 1β (IL-1β) = assay: Inflammatory cytokines in cell supernatant (Mosaic ELISA microarray): IL-1β; format: cell-based, Human; conditions: for IL-1β ng/(ml* No. of cells from photo) ± SD: 24 hours
Procedure: (§1) The inflammatory cytokines, CD40 ligand (CD40L), interferon γ (INF-γ), interleukin 1α (IL-1α), interleukin 1β (IL-1β), interleukin 6 (IL-6), interleukin 8 (IL-8), interleukin 17 (IL-17) and tumour necrosis factor α (TNF-α) were determined qualitatively and quantitatively. Each measurement was performed in duplicate using a Mosaic™ ELISA protein microarray assay system from R&D System in accordance with the supplier's instructions. Furthermore, with the aim of obtaining a correlation model between light signal intensity and cytokine concentration, a calibration curve using 6 concentrations was performed for each of them. Analysis of the data was performed using the dedicated Q-View™ Imager software package from Quansys Biosciences

interleukin 6 (IL-6) = assay: Inflammatory cytokines in cell supernatant (Mosaic ELISA microarray): IL-6; format: cell-based, Human; conditions: for IL-6 ng/(ml* No. of cells from photo) ± SD: 24 hours
Procedure: as §1

[6] = Dose 1 µm (coptisine: 1 pm [sic])

With COc1ccc2c(c[n+](C)c3c4cc5c(cc4ccc23)OCO5)c1OC [chelerythrine] the “collagen production (effect in words)” value ([1]; 1 µM, 34 ng/ml TGF-β1) was “antagonizes the stimulation of collagen induced by 34 ng/ml TGF-β1”, the “collagen production (effect in words)” value ([1]; 1 µM, 100 µM H2O2) was “tendency to stimulate collagen production” and the “collagen production (effect in words)” value ([1]; 1 µM, standard conditions) was “tendency to inhibit collagen production”. For the same compound, the “collagen production (effect in words)” value ([1]; 10 µM, 34 ng/ml TGF-β1) was “stimulates collagen production”, the “collagen production (effect in words)” value ([1]; 10 µM, 100 µM H2O2) was “stimulates collagen production” and the “collagen production (effect in words)” value ([1]; 10 µM, standard conditions) was “stimulates collagen production”. The “% DPPH activity” value ([2]; 1 mM, 30 minutes) was 115%, the “Anti-radical (skin protective)” value [2, 6] was “No” and the “Anti-radical (skin protective)” value ([2]; Dose 10 µm) was “No”. The “concentrations above which the predominant effect is inhibition of mitochondrial dehydrogenase activity” value [3] was “higher than 1 nM”, the “mitochondrial dehydrogenase activity (effect in words)” value ([3]; 1 µM, 18 h) was “stimulation of mitochondrial dehydrogenase activity” and the Revitalizing agent [3, 6] was “Yes”. For the same compound, the Revitalizing agent ([3]; Dose 10 µm) was “No”, the activity at 1 µM ([3]; 18 h) was 107 ± 10.5% and the activity at 10 µM ([3]; 18 h) was 0.87 ± 0.74%. The activity at 1 µM ([3]; 42 h) was 63.9 ± 4.3%, the activity at 10 µM ([3]; 42 h) was 0.63 ± 8.46% and the “inhibitory power toward the mitochondrial dehydrogenase activity” value ([3]; skin fibroblast cells and/or keratinocytes) was “marked inhibitory power”. The “cell proliferation (effect in words)” value (HDF cells [4]; 1 µM) was “tendency to stimulate cell proliferation”, the “No. of cells from photo ± SD” value (HDF cells [4]; 1 µM, 34 ng/ml TGF-β1) was 201±15 and the “No. of cells from photo ± SD” value (HDF cells [4]; 1 µM, 100 µM H2O2) was 289±14. For the same compound, the “No. of cells from photo ± SD” value (HDF cells [4]; 1 µM, Standard conditions) was 229±20, the “cell proliferation (effect in words)” value (HDF cells [4]; 10 µM) was “marked inhibition of proliferation” and the “No. of cells from photo ± SD” value (HDF cells [4]; 10 µM, 34 ng/ml TGF-β1) was 10±4. For the same compound, the “No. of cells from photo ± SD” value (HDF cells [4]; 10 µM, 100 µM H2O2) was 10±5, the “No. of cells from photo ± SD” value (HDF cells [4]; 10 µM, Standard conditions) was 3±3 and the “Anti-fibrotic (prevention of scar formation, also from acne)” value (HDF cells [5]; [6]) was “Yes (↓collagen, ↓IL-6, ↓IL-1β)”. The “Cytoprotective (antioxidant, anti-inflammatory and anti-ageing; useful also in the treatment of acne)” value (HDF cells [5]; [6]) was “Yes (↓IL-6, ↓IL-1β)”, the Cytotoxic (HDF cells [5]; [6]) was “No” and the Irritant (HDF cells [5]; [6]) was “No”. For the same compound, the Wound-healing (HDF cells [5]; [6]) was “Yes (↑prolif, ↓IL-1β)”, the “Anti-fibrotic (prevention of scar formation, also from acne)” value (HDF cells [5]; Dose 10 µm) was “No” and the “Cytoprotective (antioxidant, anti-inflammatory and anti-ageing; useful also in the treatment of acne)” value (HDF cells [5]; Dose 10 µm) was “No”. The Cytotoxic (HDF cells [5]; Dose 10 µm) was “Yes (cell death, ↓dehydrogenase)”, the Irritant (HDF cells [5]; Dose 10 µm) was “Yes (↑IL-6, ↑IL-1β)” and the Wound-healing (HDF cells [5]; Dose 10 µm) was “No”. For the same compound, the “concentrations at which no toxic (cytotoxic and irritant) effects are shown” value (HDF cells [5]; exposure for 24 hours) was “less than or equal to 1 µM”, the “IL-1β production (effect in words)” value (interleukin 1β (IL-1β); 1 µM, 34 ng/ml TGF-β1) was “antagonizes the production of IL-1β” and the “IL-1β ng/(ml* No. of cells from photo) ± SD” value (interleukin 1β (IL-1β); 1 µM, 34 ng/ml TGF-β1) was 98±10 ng/(ml* No. of cells from photo). The “IL-1β production (effect in words)” value (interleukin 1β (IL-1β); 1 µM, 100 µM H2O2) was “antagonizes the production of IL-1β”, the “IL-1β ng/(ml* No. of cells from photo) ± SD” value (interleukin 1β (IL-1β); 1 µM, 100 µM H2O2) was 69±20 ng/(ml* No. of cells from photo) and the “IL-1β ng/(ml* No. of cells from photo) ± SD” value (interleukin 1β (IL-1β); 1 µM, Standard conditions) was 96±101 ng/(ml* No. of cells from photo). The “IL-1β production (effect in words)” value (interleukin 1β (IL-1β); 1 µM, standard conditions) was “inhibits the production of IL-1β”, the “IL-1β production (effect in words)” value (interleukin 1β (IL-1β); 10 µM, 34 ng/ml TGF-β1) was “stimulates IL-1β production” and the “IL-1β ng/(ml* No. of cells from photo) ± SD” value (interleukin 1β (IL-1β); 10 µM, 34 ng/ml TGF-β1) was 1632±93 ng/(ml* No. of cells from photo). The “IL-1β production (effect in words)” value (interleukin 1β (IL-1β); 10 µM, 100 µM H2O2) was “stimulates IL-1β production”, the “IL-1β ng/(ml* No. of cells from photo) ± SD” value (interleukin 1β (IL-1β); 10 µM, 100 µM H2O2) was 1735±469 ng/(ml* No. of cells from photo) and the “IL-1β ng/(ml* No. of cells from photo) ± SD” value (interleukin 1β (IL-1β); 10 µM, Standard conditions) was 144±4 ng/(ml* No. of cells from photo). For the same compound, the “IL-1β production (effect in words)” value (interleukin 1β (IL-1β); 10 µM, standard conditions) was “stimulates IL-1β production”, the “IL-6 production (effect in words)” value (interleukin 6 (IL-6); 1 µM, 34 ng/ml TGF-β1) was “antagonizes the production of IL-6” and the “IL-6 ng/(ml* No. of cells from photo) ± SD” value (interleukin 6 (IL-6); 1 µM, 34 ng/ml TGF-β1) was 510±43 ng/(ml* No. of cells from photo). For the same compound, the “IL-6 production (effect in words)” value (interleukin 6 (IL-6); 1 µM, 100 µM H2O2) was “antagonizes the production of IL-6”, the “IL-6 ng/(ml* No. of cells from photo) ± SD” value (interleukin 6 (IL-6); 1 µM, 100 µM H2O2) was 626±8 ng/(ml* No. of cells from photo) and the “IL-6 ng/(ml* No. of cells from photo) ± SD” value (interleukin 6 (IL-6); 1 µM, Standard conditions) was 396±14 ng/(ml* No. of cells from photo). For the same compound, the “IL-6 production (effect in words)” value (interleukin 6 (IL-6); 1 µM, standard conditions) was “inhibits the production of IL-6”, the “IL-6 production (effect in words)” value (interleukin 6 (IL-6); 10 µM, 34 ng/ml TGF-β1) was “stimulates IL-6 production” and the “IL-6 ng/(ml* No. of cells from photo) ± SD” value (interleukin 6 (IL-6); 10 µM, 34 ng/ml TGF-β1) was 4652±243 ng/(ml* No. of cells from photo). For the same compound, the “IL-6 production (effect in words)” value (interleukin 6 (IL-6); 10 µM, 100 µM H2O2) was “stimulates IL-6 production”, the “IL-6 ng/(ml* No. of cells from photo) ± SD” value (interleukin 6 (IL-6); 10 µM, 100 µM H2O2) was 5844±328 ng/(ml* No. of cells from photo) and the “IL-6 ng/(ml* No. of cells from photo) ± SD” value (interleukin 6 (IL-6); 10 µM, Standard conditions) was 572±14 ng/(ml* No. of cells from photo). The “IL-6 production (effect in words)” value (interleukin 6 (IL-6); 10 µM, standard conditions) was “stimulates IL-6 production”.
